In patent US20210386777A1, “GAS MIXTURES CONTAINING LOW CONC[…] XENON AND ARGON PROVIDE NEURO[…] INHIBITING THE CATALYTIC ACTIVITY OF TH[…]” ([…], priority 2017, published 2021):

How the values were obtained:
[1] = test system: brain slices exposed to OGD; assay: Lactate dehydrogenase (LDH) release induced by oxygen-glucose deprivation (OGD) in brain slices; format: cell-based, rat
Protocol: Rats were killed by decapitation under halothane anesthesia. The brains were removed and placed in ice-cold freshly prepared artificial cerebrospinal fluid (aCSF). Coronal brain slices (400 μm thickness) including the striatum (anteriority: from +1.2 to +2 mm from bregma) were cut using a tissue chopper (Mickie Laboratory Engineering Co., Gomshall, Surrey, UK).
The effects of gas mixtures containing xenon and argon on the release of lactate dehydrogenase (LDH) induced by OGD were assessed as described previously. Before being used, brain slices were transferred into individual vials with 1.3 ml of freshly prepared oxygenated aCSF containing 120 mM NaCl, 2 mM KCl, 2 mM CaCl2, 26 mM NaHCO3, 1.19 mM MgSO4, 1.18 mM KH2PO4, 11 mM d-glucose, and 30 mM HEPES and allowed to recover at room temperature for 45 min. Then, brain slices were placed at 36±0.5° C. into individual vials containing 1.3 ml of freshly prepared aCSF, saturated, and continuously bubbled with 100% oxygen (25 ml/min per vial). After a 30-min period, the incubation aCSF solution was renewed with oxygenated aCSF maintained at 36° C., and the slices were then incubated for 1 h to allow recording of basal levels of LDH. Whereas control slices were incubated for an additional 20-min period in the same conditions, those corresponding to the ischemic group were incubated in a glucose-free solution, saturated, and continuously bubbled with 100% nitrogen (OGD slices). After this 20-min period of OGD, to mimic reperfusion and treatment, the medium was replaced in all groups with freshly prepared aCSF solution, saturated and continuously bubbled with either medical air or gas mixtures containing xenon and argon in volume proportions as described below (see gas pharmacology section; n=20-36).
Xenon, argon, nitrogen, and oxygen were purchased from Air Liquide Sante (Paris, France). […]

[2] = test system: rats injected with intracerebral NMDA; assay: NMDA-induced neuronal death in vivo (brain damage after intracerebral injection of NMDA); set-up: species or system rat
Protocol: The effects of gas mixtures containing xenon and argon on the […] were assessed as described previously. On the day of surgery, rats were anesthetized with 1.5% halothane in oxygen alone in an anesthesia box and mounted on a stereotactic apparatus with the incisor bar set at 3.9 mm below the horizontal zero. A burr hole was drilled and a micropipette (less than […] at the tip) was lowered into the right striatum (anterior, 0.6 mm; lateral, 3.0 mm; ventral, 5.8 mm, from bregma) to allow injection of 70 nmol of NMDA in 1 μl of phosphate buffered solution (pH 7.4) over a 2-min period. After an additional 5-min period, the micropipette was removed, and the wounds were then sutured. During surgery, body temperature was kept at 37 ±0.5° C. with a feedback-controlled thermostatic heating pad (Harvard Apparatus Limited, Edenbridge, UK). The animals woke up in their home cage after about 10 min, where they were given free access to food and water. Sixty minutes after NMDA administration, rats were treated with medical air or gas mixtures containing xenon and argon (see gas pharmacological section). The number of rats per group was n=7-11.
(§1) Xenon, argon, nitrogen, and oxygen were purchased from Air Liquide Sante (Paris, France). Medical air composed of 75 vol % nitrogen and 25 vol % oxygen, and xenon and argon mixtures containing 37.5 vol % xenon and 37.5 vol % argon (Xe—Ar-37.5), 25 vol % xenon and 25 vol % argon (Xe—Ar-25) or 15 vol % xenon and 15 vol % argon (Xe—Ar-15)—with 25 vol % oxygen and the remainder being nitrogen when needed—were obtained using computer-driven gas mass flowmeters, and an oxygen analyzer to check that the gas mixtures used were not hypoxic.

[3] = biological target: T1, recombinant form of human tPA (Homo sapiens, UniProt P00750); assay: In vitro tPA catalytic activity assay (initial rate method, chromogenic substrate); format: biochemical; details: for catalytic efficiency of tPA: single gas alone at 25 vol %
T1 construct: purchased Boehringer Ingelheim Actilyse
T1 sequence (P00750 36-562): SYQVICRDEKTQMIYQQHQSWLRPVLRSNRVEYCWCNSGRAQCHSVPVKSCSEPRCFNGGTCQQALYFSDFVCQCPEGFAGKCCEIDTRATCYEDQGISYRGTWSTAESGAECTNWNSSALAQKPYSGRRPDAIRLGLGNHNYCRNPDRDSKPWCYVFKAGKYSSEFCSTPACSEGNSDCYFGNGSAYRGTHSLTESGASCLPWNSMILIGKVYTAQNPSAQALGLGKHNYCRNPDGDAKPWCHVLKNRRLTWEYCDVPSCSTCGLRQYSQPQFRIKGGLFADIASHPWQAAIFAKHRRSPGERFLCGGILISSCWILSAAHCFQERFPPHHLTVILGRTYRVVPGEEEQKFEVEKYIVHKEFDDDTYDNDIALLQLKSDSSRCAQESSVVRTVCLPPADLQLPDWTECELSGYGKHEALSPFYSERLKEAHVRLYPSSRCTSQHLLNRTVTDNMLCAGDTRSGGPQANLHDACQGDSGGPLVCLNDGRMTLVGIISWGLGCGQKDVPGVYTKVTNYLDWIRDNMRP
Protocol: […] The recombinant form of human tPA (Actilyse®; Boehringer Ingelheim, Ingelheim am Rhein, Germany) and its specific chromogenic substrate methylsulfonyl-D-phenyl-glycil-arginine-7-amino-4-methylcoumarin acetate (Spectrozyme® XF, product 444; American Diagnostica, Stamford, CT) were diluted separately in 1 ml distilled water in 1.5-ml sterile tubes. […] The catalytic efficiency of tPA was assessed by the initial rate method by incubating 50 μl tPA with 50 μl substrate in a spectrofluorometer microplate reader set at 37° C.
as §1

tPA and rtPA = tPA and rtPA (Homo sapiens, UniProt P00750); details: cited from earlier work
Sequence of tPA and rtPA (P00750 36-562): as above

elastase = elastase (Sus scrofa, UniProt P00772); details: cited from earlier work; for binding to the active site of elastase: serine protease used as a model of tPA
Sequence of elastase (P00772 27-266): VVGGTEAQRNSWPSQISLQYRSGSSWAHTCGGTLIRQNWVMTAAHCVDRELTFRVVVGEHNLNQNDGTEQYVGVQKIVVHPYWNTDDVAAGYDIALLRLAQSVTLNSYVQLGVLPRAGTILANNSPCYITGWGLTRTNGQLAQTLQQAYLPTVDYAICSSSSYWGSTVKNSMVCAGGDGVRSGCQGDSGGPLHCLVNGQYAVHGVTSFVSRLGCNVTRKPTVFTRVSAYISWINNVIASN

[4] = test system: rat model of thromboembolic stroke; details: intraischemic administration; cited from earlier work
[5] = cited from earlier work

| SMILES | OGD-induced LDH release ([1]; single gas alone at 15 vol %) | OGD-induced LDH release ([1]; single gas alone at 25 vol %) | NMDA-induced brain damage ([2]; single gas alone at 15 vol %) | NMDA-induced brain damage ([2]; single gas alone at 25 vol %) | tPA-induced catalytic activity ([3]; argon alone, concentration not given) | catalytic efficiency of tPA [3] | inhibiting action on the thrombolytic properties of tPA and rtPA (tPA and rtPA; neuroprotective concentrations of 50 vol % and above) | affinity for elastase relative to xenon (elastase) | binding to the active site of elastase (elastase) | inhibition of tPA and rtPA (tPA and rtPA; xenon alone) | tPA-induced thrombolysis and subsequent reduction of ischemic brain damage [4] | neuroprotection ([5]; subanesthetic concentrations of 37.5 vol % or 50 vol %) | possible therapeutic window of neuroprotection ([5]; xenon alone) |
| --- | --- | --- | --- | --- | --- | --- | --- | --- | --- | --- | --- | --- | --- |
| [Ar] [argon] | also had no effect by itself on OGD-induced LDH release | had no effect by itself on OGD-induced LDH release | also had no effect by itself on NMDA-induced brain damage | had no effect by itself on NMDA-induced brain damage | has no effect | decreased it significantly | shows no inhibiting action | lower affinity than xenon | bind to the active site of elastase | – | – | – | – |
| [Xe] [xenon] | had no effect by itself on OGD-induced LDH release | – | had no effect by itself on NMDA-induced brain damage | – | – | had no effect on the catalytic efficiency of tPA | – | – | bind to the active site of elastase | potent inhibitor of tPA and rtPA | dose-dependently inhibits | provided neuroprotection | about 8 h |
